Reference: patent US20170080009A1, “Oligonucleotide Compositions and Methods for Treating Acute Lymphoblastic Leukemia” (priority 2014, published 2017)
Read-outs that look alike come from different tables or passages of the source.

Experiments:
[1] = biological target: T1, TS (Homo sapiens, UniProt P04818); test: TS catalytic activity in treated Jurkat cells; assay type: cell-based
T1 construct: Jurkat cells were exposed to 10 nM FdUMP[10] or 100 nM 5-FU for the indicated time, lysed and assayed for TS activity; endogenous in cells; host or cells: Jurkat
Experimental: Cells were plated at 1.5×10^6 cells in 100 mm2 plates and grown overnight in RPMI 1640 medium with 20% FBS. Cells were exposed to the indicated drug for 8, 16, 24, or 48 hours. Cells were then harvested in 25 mM Tris-HCl, pH 7.4 with Complete Protease Inhibitor Cocktail (Roche), put through 2 freeze/thaw cycles, and vortexed. The lysates were centrifuged at 10,000×g for 10 minutes at 4° C. TS assays were performed in a final volume of 200 μl containing 75 μM 5,10 methylene tetrahydrofolate in 0.5 M NaOH (Schircks Laboratories, Switzerland), 10 μM dUMP, 200,000 dpm of 3H-dUMP (Moravek Biochemicals), 100 μM 2-mercaptoethanol, and 25 mM KH2PO4, pH 7.4. Cell lysate (400 μg of protein) was added to the reaction buffer. Reactions were incubated at 37° C. for 30 minutes and stopped by addition of 100 μl of 20% TCA, incubated for 5 minutes on ice. 200 μL of activated charcoal solution (10 g activated charcoal, 0.25 g BSA, 0.25 g dextran sulfate, in 100 ml of water) was added, vortexed and maintained at room temperature for 10 minutes. Reactions were centrifuged at 10,000×g for 30 minutes. 200 μL aliquots of the supernatant were read by scintillation counting. All reactions were repeated a minimum of three times.
(A) TS inhibition assay. Jurkat cells were exposed to 10 nM FdUMP[10] or 100 nM 5-FU for the indicated time, lysed and assayed for TS activity. Activity is plotted as percentage of control. […]

[2] = system: B6 ALL cells; test: Cell viability assay, B6 ALL cells; assay type: cell-based, mouse
[3] = system: CCRF-CEM cells; test: Cell viability assay, CCRF-CEM cells; assay type: cell-based, human; settings: 72 hour exposure prior to viability
[4] = system: Molt-4 cells; test: Cell viability assay, Molt-4 cells; assay type: cell-based, human; settings: 72 hour exposure prior to viability
[5] = Toxicology study in normal Balb/c mice (histopathology of bone marrow and GI tract)
Experimental: Normal Balb/c mice were treated with identical dose, schedule and route of each drug as in the efficacy studies (i.e. Day 1, 3, 5 and 7). 72 hours after the last dose, animals were sacrificed, bilateral femoral cells harvested and organs fixed in 10% neutral buffered formalin followed by routine tissue processing and sectioning for hematoxylin and eosin staining. Slides were then reviewed by a veterinary pathologist using a Nikon Eclipse 50i light microscope. Photographs of tissues were taken using the NIS Elements D3.10 camera and software system.
Animals were sacrificed 72 hours following their last dose. BM=bone marrow, LI=large intestine, SI=small intestine.
The 5-FU dose was chosen as it delivers the exact same amount of fluoropyrimidine as the F10 dosed at 300 mg/kg. GI tract and bone marrow slides were analyzed by a veterinary pathologist blinded to treatment.

[6] = system: DG75 cells; test: Cell viability assay, DG75 cells; assay type: cell-based, human; settings: 72 hour exposure prior to viability
[7] = system: SUP-B15 ALL cells; test: Annexin V / PI apoptosis assay, SUP-B15 cells; assay type: cell-based, human
Experimental: (§1) Cells were seeded in 6-well μ[…] in 3 mls, grown for 2 days and treated with the indicated drug. After centrifugation and washing in cold PBS cells were stained with PI (Sigma Aldrich, St. Louis, Mo.) and APC-conjugated Annexin V in a binding buffer (0.1 M Hepes (pH 7.4), 1.4 M NaCl, and 25 mM CaCl2 solution) (BD Pharmingen, San Jose, Calif.) according to the manufacturer's protocol. Flow cytometric analysis was conducted on a Accuri flow cytometer (BD Biosciences). […] FIG. 1 A) Flow cytometry of Annexin V assay. […] B) Quantitation of non-apoptotic cells.

[8] = system: B6 ALL cells; test: Annexin V / PI apoptosis assay, B6 ALL cells; assay type: cell-based, mouse
Experimental: as §1

[9] = system: SUP-B15 cells; test: Cell viability assay, SUP-B15 cells; assay type: cell-based, human; settings: 72 hour exposure prior to viability
[10] = system: Ara-C resistant B6 ALL cells; test: C57Bl/6 mice injected with Ara-C resistant B6 ALL cells, survival; assay type: in vivo; settings: control median 12 days
Experimental: (§2) Committee approved all mouse experiments. […] Control animals were injected with PBS.
A) Cell viability assays.

[11] = system: Ara-C resistant B6 ALL cells; test: Cell viability assay, Ara-C resistant B6 ALL lines; settings: Mus musculus, 72 h, read-out: average IC50 of cytarabine, relapsed (resistant) cells
Experimental: (§3) All human cell lines were maintained in RPMI media (Gibco, Carlsbad, Calif.) supplemented with 10% FBS, penicillin and streptomycin. Cells were grown at 37° C. with 5% CO2. Viability assays were done using the Cell Titer-Glo assay (Promega, Madison, Wis.) according to the manufacturer's protocol or by Trypan blue exclusion assay using the Countess cell counting system (Invitrogen, Carlsbad, Calif.). All murine cells were maintained in stem cell media (40% DMEM, 40% IMDM, 20% FBS, supplemented with murine SCF to 10 ng/ml, murine IL6 to 2 ng/ml, and murine IL3 to 0.4 ng/ml).
When the mice were moribund bilateral femur cells from 4 separate animals were harvested and they were placed in culture.

[12] = system: Baf-3 cells expressing the T315I variant of BCR-ABL; test: Syngeneic Baf-3 BCR-ABL T315I model in Balb/c mice, survival; assay type: in vivo; settings: 300 mg/kg tail vein QOD x4 doses; p=0.0013
Experimental: as §2

[13] = system: SUP-B15 tumors; test: SUP-B15 xenograft in nude mice; settings: 300 mg/kg tail vein QOD for 5 doses
Experimental: (§4) Committee approved all mouse experiments. Luciferase-tagged leukemia cells were transplanted into 6- to 8-wk-old C57Bl/6 or Balb/c recipient mice by tail-vein injection of 1×10^6 viable cells. Mice were monitored by bioluminescent imaging on day 6. Imaging was performed using an IVIS100 imaging system (Caliper LifeSciences, Hopkinton, Mass.). Mice were injected with 150 mg/kg D-Luciferin (Gold Biotechnology, St. Louis, Mo.), anesthetized with isoflurane, and imaged for 2 min. For the xenograft studies 6-8-wk old nude mice were subcutaneously injected with 2×10^6 cells mixed with 200 μl matrigel (BD Bioscience). Chemotherapy was initiated upon detection of clear signals or reproducibly palpable flank tumors. Mice were treated with 300 mg/kg FdUMP[10] by tail vein injection. Control animals were injected with PBS. Repeat luciferase imaging or tumor volume measurements were performed following treatment.
(§5) B) Survival of Balb/c mice injected with Baf-3 cells expressing the T315I variant of BCR-ABL treated with saline or F10 at 300 mg/kg QOD ×4 doses as indicated. […] D) Volumes of Jurkat tumors in nude mice treated with saline or F10 at 300 mg/kg QOD ×5 doses as indicated. […] F) Survival of all xenograft bearing mice from time of injection treated with saline or F10 at 300 mg/kg QOD ×5 doses as indicated. All p values were derived from log rank tests. […]

[14] = mouse, in vivo
[15] = system: Jurkat tumors; test: Jurkat xenograft in nude mice; settings: 300 mg/kg tail vein QOD for 5 doses
Experimental: as §4, §5

[16] = system: B6 ALL cells; test: Syngeneic B6 ALL model in C57Bl/6 mice, survival; settings: 300 mg/kg tail vein QOD
Experimental: as §4
B) Survival of Balb/c mice injected with Baf-3 cells expressing the T315I variant of BCR-ABL treated with saline or F10 at 300 mg/kg QOD ×4 doses as indicated. […] D) Volumes of Jurkat tumors in nude mice treated with saline or F10 at 300 mg/kg QOD ×5 doses as indicated. […] F) Survival of all xenograft bearing mice from time of injection treated with saline or F10 at 300 mg/kg QOD ×5 doses as indicated. All p values were derived from log rank tests.
In this system Baf-3 cells were infected with an MSCV based virus that expressed the T315 variant of BCR-ABL seen in many cases of relapsed Philadelphia chromosome positive ALL^8. […] Nude mice were subcutaneously injected with 2×10^6 cells in matrigel and once a reproducibly palpable tumor was established were treated with F10 at 300 mg/kg or saline by tail vein injection QOD for 5 doses.

[17] = system: panel of human and mouse ALL cell lines; settings: for IC50: 72 hours
Experimental: as §3
In order to assess the activity of F10 a panel of human and mouse ALL cell lines were exposed to a titration of F10, 5-FU, cytarabine or doxorubicin. After 72 hours viability was assessed and the IC50 values for each was determined.

[18] = system: Jurkat cells, a human T cell ALL line; test: Sensitivity of Jurkat cells to F10; assay type: cell-based
Source text: One pathway that the inventors of the present invention believed could be exploited was the increased uptake of oligonucleotides by ALL cells. F10 is a poison deoxy-oligonucleotide that is a 10mer of the TS inhibitory 5-FU metabolite, 5-fluoro-2′-deoxyuridine-5′-O-monophosphate (FdUMP[10]) SEQ ID NO: 1. […] Activity of these targets is important for any replicating cell regardless of driving mutations. […] In this invention, the activity, toxicity and uptake of F10 in preclinical models of ALL was determined.

[19] = system: B6 ALL cells; test: Engraftment of treated B6 ALL cells in syngeneic C57Bl/6 mice; assay type: in vivo, mouse; settings: cells treated with 50 nM F10 for 24 hours prior to injection
Source text: B) Engraftment of human HSCs.

[20] = system: SUP-B15, Jurkat, and DG75 human ALL cell lines in xenograft models; test: All xenograft bearing mice (SUP-B15, Jurkat, DG75), survival and eradication; settings: 300 mg/kg QOD for 5 doses
Experimental: as §4, §5

[21] = system: DG-75 tumors; test: DG75 xenograft in nude mice; settings: 300 mg/kg tail vein QOD for 5 doses
Experimental: as §4, §5

[22] = 72 hour exposure prior to viability, read-out: IC50 B6 ALL
[23] = 5-FU 121 mg/kg QOD x4, sacrificed 72 hours after last dose
[24] = Mus musculus, 72 hour exposure prior to viability, read-out: IC50 B6 ALL
[25] = F10 300 mg/kg QOD x4, sacrificed 72 hours after last dose

T1 sequence (P04818 whole entry): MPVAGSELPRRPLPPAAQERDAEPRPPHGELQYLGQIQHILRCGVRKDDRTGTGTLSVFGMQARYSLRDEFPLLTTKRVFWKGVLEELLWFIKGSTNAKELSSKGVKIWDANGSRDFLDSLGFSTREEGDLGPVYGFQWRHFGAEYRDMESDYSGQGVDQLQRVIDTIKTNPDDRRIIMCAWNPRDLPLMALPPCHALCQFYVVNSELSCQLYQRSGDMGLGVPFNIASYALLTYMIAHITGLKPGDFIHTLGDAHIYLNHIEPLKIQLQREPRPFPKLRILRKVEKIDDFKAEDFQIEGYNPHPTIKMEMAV

In the case of O=c1[nH]cc(F)c(=O)[nH]1 [5-FU, reference compound], the “TS inhibition (activity as percentage of control)” value ([1]; 100 nM 5-FU, compared with 10 nM F10) is reported as “could not be achieved by 5-FU”, the IC50 [2, 22] is reported as 799 nM and the IC50 [3] is reported as greater than 50000 nM. The IC50 [4] was 4960 nM, the “GI tract toxicity (histopathology)” value [5, 23] was “abundant tissue damage and immune cell infiltration” and the “bone marrow toxicity (histopathology)” value [5, 23] was “pancytopenic and hemorrhagic marrow”. For the same compound, the IC50 [6] was 14000 nM, the “induction of apoptosis (non-apoptotic cells vs controls)” value ([7]; 100 nM 5-FU, 72 hours) was “not significantly different from controls” and the “induction of apoptosis (non-apoptotic cells vs controls)” value ([8]; 100 nM 5-FU, 72 hours) was “not significantly different from controls”. It also gave an IC50 [9] of 425 nM.

With Nc1ccn([C@@H]2O[C@H](CO)[C@@H](O)[C@@H]2O)c(=O)n1 [Cytarabine] the “survival compared with control” value ([10]; cytarabine 100 mg/kg QOD) was “lived only a day longer”, the IC50 [2, 24] was 11.9 nM and the IC50 ([2]; Mus musculus, parental B6 ALL, 72 hours, read-out: IC50 of cytarabine, parental cell line) was 11 nM. The IC50 [11] was 23 nM, the IC50 ([3]; Homo sapiens, CCRF-CEM) was 8.32 nM and the IC50 ([4]; Homo sapiens, MOLT-4) was 10.6 nM. It also gave an IC50 ([6]; Homo sapiens, DG-75) of 64.3 nM.

Work on COc1cccc2c1C(=O)c1c(O)c3c(c(O)c1C2=O)C[C@@](O)(C(=O)CO)C[C@@H]3O[C@H]1C[C@H](N)[C@H](O)[C@H](C)O1 [Doxorubicin] yielded an IC50 [2, 24] of 4.84 nM, an IC50 ([3]; Homo sapiens, CCRF-CEM) of 36.3 nM and an IC50 ([4]; Homo sapiens, MOLT-4) of 19.5 nM. For the same compound, the IC50 ([6]; Homo sapiens, DG-75) was 150 nM and the IC50 ([9]; Homo sapiens, SUP-B15) was 19.4 nM.

For FdUMP[10] [F10], the survival vs saline [12] was “significant prolongation of survival”, the tumor volume response [13] was “tumor regression” and the median survival ([10]; F10 300 mg/kg QOD) was 31 days. For the same compound, the “body weight of leukemic mice” value [14] was “protected the mice from leukemia induced weight loss”, the tumor volume response [15] was “tumor regression” and the “TS inhibition (activity as percentage of control)” value ([1]; 10 nM F10, 8-48 hours) was “profound and prolonged TS inhibition”. For the same compound, the IC50 [2, 22] was 0.07 nM, the “median OS” value ([16]; 4 treatments, control 15 days, p<0.0001) was 18 days and the “median OS” value ([16]; 6 treatments, p=0.0009) was 24 days. The “median OS” value ([16]; 9 treatments, p=0.0001) was 30 days, the IC50 [3] was 1.14 nM and the IC50 [4] was 1.88 nM. The “potency relative to 5-FU” value [17] was “more than 1000 times”, the IC50 ([17]; read-out: average IC50 value for all cell lines, average over all cell lines) was 1.48 nM and the IC50 ([17]; read-out: range of IC50 values over all cell lines, range over cell lines) was 0.07 to 5.4 nM. The “GI tract toxicity (histopathology)” value [5, 25] was “only a mild increase in apoptotic cells”, the “bone marrow toxicity (histopathology)” value [5, 25] was “only minimal marrow toxicity” and the IC50 [6] was 4.12 nM. The “sensitivity of Jurkat cells” value [18] was “low nanomolar sensitivity”, the “engraftment of B6 ALL cells (bioluminescence)” value [19] was “significantly reduced engraftment” and the “induction of apoptosis (Annexin V and PI positive cells)” value ([7]; 1 nM F10, 72 hour exposure) was “robust induction of Annexin V and PI positive cells”. The tumor eradication ([20]; in several cases) was “complete eradication of the tumor”, the “survival of all xenograft bearing mice vs saline” value ([20]; p=0.0098) was “significant survival advantage” and the tumor volume response [21] was “tumor regression”. The “induction of apoptosis (Annexin V and PI positive cells)” value ([8]; 1 nM F10, 72 hour exposure) was “robust induction of Annexin V and PI positive cells” and the IC50 [9] was 0.21 nM.
